Consider 30 compounds from ChEMBL document CHEMBL5620427, “Recent advances in Fragment-based strategies against tuberculosis” (Eur J Med Chem, 2023).

The structures appear in SMILES notation. Converted amounts (≈) assume the structure as drawn.

In data set [1] the test system is Mycobacterium tuberculosis. Put plainly: Antibacterial activity against Mycobacterium tuberculosis ATCC 27294 assessed as reduction in bacterial cell growth measured after 48 hrs by broth microdilution method. Format: functional.
Data set [2] deals with T1, Enoyl-[acyl-carrier-protein] reductase [NADH] (Mycobacterium tuberculosis, UniProt P9WGR1).
T1 sequence (P9WGR1 whole entry): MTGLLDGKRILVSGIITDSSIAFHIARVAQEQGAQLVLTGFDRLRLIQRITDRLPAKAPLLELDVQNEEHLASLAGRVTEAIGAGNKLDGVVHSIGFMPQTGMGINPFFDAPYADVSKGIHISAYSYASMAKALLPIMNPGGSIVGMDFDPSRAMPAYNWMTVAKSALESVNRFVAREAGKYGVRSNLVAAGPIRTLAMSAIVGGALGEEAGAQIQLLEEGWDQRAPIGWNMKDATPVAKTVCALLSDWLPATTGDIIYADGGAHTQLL
Put plainly: Binding affinity to Mycobacterium tuberculosis InhA assessed as dissociation constant.

Data set [3] deals with HTH-type transcriptional regulator EthR (Mycobacterium tuberculosis) (UniProt P9WMC1). As to the kind of experiment: Binding affinity to Mycobacterium tuberculosis EthR assessed as change in melting temperature at 100 uM by thermal shift assay.
For data set [4], the target named is HTH-type transcriptional regulator EthR (Mycobacterium tuberculosis, UniProt P9WMC1). As to the kind of experiment: Inhibition of Mycobacterium tuberculosis EthR by SPR assay. A general note: SPR reads the build-up and loss of mass on a sensor chip optically.
The subject of data set [5] is Mycobacterium tuberculosis. Put plainly: Antimycobacterial activity against Mycobacterium tuberculosis assessed as reduction in microbial growth by broth microdilution method. The data set is classed as functional. On the technique in general: Dilution methods test growth across graded concentrations, often in twofold steps.
A short description of data set [6]: Metabolic stability in CD-1 mouse liver microsomes assessed as intrinsic clearance at 20 uM measured after 40 mins by LC-MS/MS analysis. The data set is classed as ADME, Microsome. Background: Microsomes from liver hold many membrane-bound enzymes, among them those of drug oxidation.
Data set [7] concerns the target HTH-type transcriptional regulator EthR (Mycobacterium tuberculosis) (UniProt P9WMC1). As to the kind of experiment: Binding affinity to Mycobacterium tuberculosis EthR assessed as change in melting temperature at 20 uM by thermal shift assay.
The test system of data set [8] is Mycobacterium tuberculosis. As to the kind of experiment: Antimycobacterial activity against Mycobacterium tuberculosis infected in mouse macrophage cells assessed as bacterial growth inhibition. Format: functional, organism-based.
For data set [9], the system named is Mycobacterium tuberculosis. Put plainly: Antimycobacterial activity against Mycobacterium tuberculosis Erdman infected in BALB/c mouse model assessed as log reduction of bacterial load in lung at 200 mg/kg administered via oral gavage for 2 weeks. The data set is classed as functional.
Data set [10] in a line: Inhibition of N-terminal His-tagged wild type Mycobacterium tuberculosis Rv1837c GlcB expressed in Escherichia coli BL21 by chromatography method.
Data set [11] has as its system Mycobacterium tuberculosis. As to the kind of experiment: Antimycobacterial activity against Mycobacterium tuberculosis […] assessed as reduction in bacterial growth incubated for 48 hrs by resazurin dye based analysis. Format: functional.
In data set [12] the test system is Mycobacterium tuberculosis. As to the kind of experiment: Antimycobacterial activity against Mycobacterium tuberculosis H37Rv assessed as reduction in bacterial cell growth measured after 7 days by resazurin dye based analysis. The note with it: 168 h, time 7 day. The data set is classed as functional.
For data set [13], the target named is T1, Enoyl-[acyl-carrier-protein] reductase [NADH]. Put plainly: Inhibition of Mycobacterium tuberculosis InhA.
Data set [14] relates to Mycobacterium tuberculosis. Put plainly: Binding affinity to Mycobacterium tuberculosis RV0078 EthR2 assessed as change in melting temperature at 20 uM by thermal shift assay.
Data set [15] can be described thus: Inhibition of Mycobacterium tuberculosis RV0078 EthR2.
Data set [16] has as its system Mycobacterium tuberculosis. Put plainly: Antimycobacterial activity against Mycobacterium tuberculosis H37Rv assessed as reduction in bacterial growth incubated for 7 days by resazurin dye based assay. Format: functional. The note with it: 168 h, time 7 day.
For data set [17], the target named is T2, Dihydrofolate reductase (Mycobacterium tuberculosis) (UniProt P9WNX1).
T2 sequence (whole entry): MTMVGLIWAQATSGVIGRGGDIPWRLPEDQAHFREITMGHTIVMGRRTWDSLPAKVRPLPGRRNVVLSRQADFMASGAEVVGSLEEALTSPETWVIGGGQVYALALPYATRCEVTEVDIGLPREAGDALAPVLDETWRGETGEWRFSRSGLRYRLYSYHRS
As to the kind of experiment: Binding affinity to Mycobacterium tuberculosis DHFR assessed as change in melting temperature at 5 uM by thermal shift assay.

A further data set addresses T3, Dihydrofolate reductase (Mycobacterium tuberculosis, UniProt P9WNX1).
T3 sequence (P9WNX1 whole entry): T2 sequence (whole entry)
Put plainly: Binding affinity to Mycobacterium tuberculosis DHFR assessed as dissociation constant.

The subject of data set [18] is Mycobacterium tuberculosis. As to the kind of experiment: Antimycobacterial activity against Mycobacterial tuberculosis assessed as log reduction of bacterial load. Format: functional.
Data set [19] can be described thus: Metabolic stability in mouse liver microsomes assessed as intrinsic clearance. The note with it: read-out: CLH. The data set is classed as ADME, Microsome.
Data set [20] has as its system Mycobacterium tuberculosis. Put plainly: Binding affinity to Mycobacterium tuberculosis RV0078 EthR2 assessed as change in melting temperature at 1 uM by thermal shift assay.
Data set [21] deals with Mycobacterium tuberculosis. Put plainly: Antibacterial activity against Mycobacterium tuberculosis ATCC 27294 assessed as inhibition of cell growth incubated for 7 days by broth dilution method. The note with it: ATCC 27294, 168 h, time 7 day. Format: functional.
Data set [22] has as its system Mycobacterium tuberculosis. Put plainly: Antimycobacterial activity against Mycobacterium tuberculosis H37Rv ATCC 25618 assessed as bacterial growth inhibition. The data set is classed as functional.

HTH-type transcriptional regulator EthR (Mycobacterium tuberculosis), sequence (P9WMC1 whole entry): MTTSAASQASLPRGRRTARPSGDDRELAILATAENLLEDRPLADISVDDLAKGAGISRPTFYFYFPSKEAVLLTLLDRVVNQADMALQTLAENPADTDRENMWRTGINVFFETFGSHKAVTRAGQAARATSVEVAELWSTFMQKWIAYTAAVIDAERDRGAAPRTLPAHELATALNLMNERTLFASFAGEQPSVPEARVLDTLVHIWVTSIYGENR
HTH-type transcriptional regulator EthR, sequence (P9WMC1 whole entry): as above

As usually defined, the MIC99 is the lowest concentration that inhibits either 99% of growth or 99% of the strains tested, depending on the study. Consider `NS(=O)(=O)c1cc(Cl)cc(Cl)c1`, for which the MIC99 in data set [1] worked out at 111 µM (≈ 25.1 µg/mL).

For orientation: Kd means the equilibrium constant for the complex coming apart. For the compound `Cc1cc(N)n(Cc2ccc(C(=O)NCc3ccc(F)cc3Cl)cc2)n1`, the Kd in [2] was determined as 8 µM.

By ΔTm is commonly meant the change in melting temperature against a reference sample. As to `CNCc1ccc(N2CCCCC2)cc1`, in data set [3], the shift in melting temperature (ΔTm) came out at 3.8 °C. Besides, in data set [4], the IC50 is greater than 100 µM.

One may read the MIC50 as an inhibitory concentration at the 50% level, which refers to growth in some studies and to a panel of isolates in others. Regarding `O=C(CCCC1CCCCC1)N1CCCC1`, the MIC50 in [5] worked out at 1 µM.

As to `CCOC(=O)c1cc(Cl)c(O)c(Cl)c1`, the MIC99 in data set [1] is less than 53 µM.

As a reminder, the EC50 is the concentration giving half of the maximal effect. For `O=C(NCCC(F)(F)F)c1ccc(-c2noc(C3CC3)n2)cc1`, the CLH in [6] is 69 µL/min. For the same compound, in data set [7], the thermal shift (ΔTm) is 10.2 °C. The concentration for a half-maximal effect (EC50) in [8] was 0.07 µM. Also, the “log(activity)” value in data set [9] is reported as 2.

Turning to `COc1ccc(CCC(=O)N2CCC(SS[C@@H]3CCN(C(=O)CCc4ccc(OC)cc4)C3)C2)cc1` (stereo partly drawn), the IC50 in data set [4] amounted to 1.1 µM.

In turn, `O=C(O)/C(O)=C/C(=O)c1ccccc1Br` came in with an IC50 in data set [10] of 0.6 µM. For the same compound, in data set [11], the MIC99 was determined as 6.25 µM (≈ 1.69 µg/mL).

As for `O=C(CCC1CCCC1)N1CCCC1`, the ΔTm in data set [3] was found to be 3 °C.

For the compound `COc1ccc(-c2nc(O)c3ccccc3n2)cc1`, the MIC99 in [12] is 31.5 µg/mL (≈ 125 µM).

Regarding `O=C(OCCCC1CCCC1)N1CCCC1`, the MIC50 in data set [5] was 1 µM.

As for `O=C(NCc1cccnc1)NC1CCCCC1`, the IC50 in [13] (read-out: pIC50 (converted)) was greater than 1000 µM.

With `O=C1CC2CCC(C1)N2CCc1ccc(C(F)(F)F)cc1`, in data set [14], the ΔTm was 0.6 °C. The IC50 in data set [15] worked out at 0.2 µM.

In the case of `CCNc1nnc(Cn2nc(C)cc2C)s1`, in data set [13] (read-out: pIC50 (converted)), the IC50 was greater than 1000 µM.

The MIC90 is the lowest concentration that inhibits either 90% of growth or 90% of the strains tested, depending on the study. Consider `CC(C)(C)OC(=O)Nc1ccc(I)cc1C(=O)O`, for which the IC50 in data set [13] (read-out: IC50) worked out at 280 µM. For the same compound, the MIC90 in data set [16] worked out at 300 µM (≈ 109 µg/mL).

As for `Cc1ccn(C(C)c2nnc(Nc3ccn(Cc4c(F)cccc4Cl)n3)s2)n1` (stereo not drawn), in data set [2], the dissociation constant (Kd) is 6.3 µM.

Regarding `O=C(CCc1c[nH]c2ccccc12)Nc1c(C(=O)O)cnn1-c1ccccc1`, in data set [17], the thermal shift (ΔTm) came to 5.1 °C. The equilibrium dissociation constant (Kd) on Dihydrofolate reductase is 0.017 µM.

`O=C(O)/C=C/c1cccc(C(F)(F)F)c1`: the ΔTm in data set [7] was determined as 3.2 °C.

As for `Cc1cncc(CNC(=O)NC2CCN(c3ncccn3)CC2)c1`, in data set [2], the Kd is 4.7 µM.

`CC1(C)CCC(Cc2cc(O)c(-c3ccccc3)c(=O)[nH]2)CC1`: the IC50 in [13] (read-out: pIC50 (converted)) was 10 µM. Also, the “log(activity)” value in data set [18] is 1.5.

As to `O=C1CC2CCC(C1)N2CCc1ccc(Cl)cc1`, in data set [19], the microsomal CLint stood at 60 µL/min/mg. Further, the ΔTm in [20] worked out at 3.4 °C. This compound also showed an IC50 in data set [15] of 1 µM.

On to `O=C(O)/C(O)=C/C(=O)c1ccc2[nH]ccc2c1`, for which the IC50 in data set [10] stood at 0.02 µM.

In the case of `Cc1cc(N)n(Cc2ccccc2)n1`, the Kd in data set [2] amounted to 3.3 µM.

As for `Cc1c(C(=O)O)cnn1-c1ccccc1`, the thermal shift (ΔTm) in data set [17] was found to be 1.2 °C. Also, on Dihydrofolate reductase, the Kd was determined as 0.64 µM.

As usually defined, the MIC is the lowest concentration that inhibits growth of the organism. Consider `O=C(O)c1cc(Cl)c(O)c(Cl)c1`, for which, in data set [21], the minimum inhibitory concentration (MIC) came to 971 µM (≈ 201 µg/mL).

Take `O=C(Nc1ccc(I)cc1C(=O)O)c1ccc(Cl)c(Cl)c1`: the IC50 in data set [13] (read-out: IC50) was found to be 38 µM. In addition, the MIC90 in data set [16] was 300 µM (≈ 131 µg/mL).

As to `Cc1cc(N)n(Cc2nnc(Nc3ccn(Cc4c(F)cccc4Cl)n3)s2)n1`, the Kd in [2] was 7.1 µM.

As to `Nc1c(Cl)cc(S(N)(=O)=O)cc1Cl`, the MIC in data set [22] stood at 833 µM (≈ 201 µg/mL).

For the compound `N#Cc1ccc(N2CCC(CCC(=O)N3CCCC3)CC2)cc1`, in [3], the ΔTm stood at 7.5 °C.

Take `CC(=O)NC1CCN(c2ncccn2)CC1`: the IC50 in [13] (read-out: pIC50 (converted)) was greater than 1000 µM.
